From ChEMBL document CHEMBL1201862, “PubChem BioAssay data set” (2004)
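Grown in 96-well plates, cells were treated for 48 hours with each compound at five concentrations. Insufficient inhibition: endpoint recorded as highest concentration tested. At the GI50, growth is halved.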 Active and inactive are the calls of the source. Rule as the data show it: active = GI50 up to about 1.1 µM and inactive = higher.

How the values were obtained:
Assay in all cases: NCI anticancer screen, dose series, 48 h
786-0 = tested on: 786-0
A498 = tested on: A498
CAKI-1 = tested on: CAKI-1
CCRF-CEM = tested on: CCRF-CEM
COLO 205 = tested on: COLO 205
HCT-116 = tested on: HCT-116
IGROV-1 = tested on: IGROV-1
K562 = tested on: K562
KM12 = tested on: KM12
M14 = tested on: M14
MCF7 = tested on: MCF7
NCI-H226 = tested on: NCI-H226
NCI-H23 = tested on: NCI-H23
NCI-H460 = tested on: NCI-H460
SF-295 = tested on: SF-295
SK-MEL-5 = tested on: SK-MEL-5
SK-OV-3 = tested on: SK-OV-3
U-251 = tested on: U-251

| SMILES | GI50 (786-0) | GI50 (A498) | GI50 (CAKI-1) | GI50 (CCRF-CEM) | GI50 (COLO 205) | GI50 (HCT-116) | GI50 (IGROV-1) | GI50 (K562) | GI50 (KM12) | GI50 (M14) | GI50 (MCF7) | GI50 (NCI-H226) | GI50 (NCI-H23) | GI50 (NCI-H460) | GI50 (SF-295) | GI50 (SK-MEL-5) | GI50 (SK-OV-3) | GI50 (U-251) |
| --- | --- | --- | --- | --- | --- | --- | --- | --- | --- | --- | --- | --- | --- | --- | --- | --- | --- | --- |
| COc1ccc(CCN2CCN(CCc3ccc(OC)cc3)CC2)cc1 | > 100 µM (inactive) | > 100 µM (inactive) | > 100 µM (inactive) | > 100 µM (inactive) | > 100 µM (inactive) | > 100 µM (inactive) | > 100 µM (inactive) | > 100 µM (inactive) | > 100 µM (inactive) | > 100 µM (inactive) | > 100 µM (inactive) | > 100 µM (inactive) | > 100 µM (inactive) | > 100 µM (inactive) | 46.6 µM (inactive) | > 100 µM (inactive) | > 100 µM (inactive) | > 100 µM (inactive) |
| COc1cccc(C2c3cc4c(cc3OC(N3CCCCC3)C2C)OCO4)c1OC (stereo not drawn) | 72.1 µM (inactive) | 9.42 µM (inactive) | 2.58 µM (inactive) | 3.46 µM (inactive) | 7.64 µM (inactive) | 2.72 µM (inactive) | 5.16 µM (inactive) | 3.63 µM (inactive) | 6.32 µM (inactive) | 12.7 µM (inactive) | 5.71 µM (inactive) | 3.93 µM (inactive) | 14.3 µM (inactive) | 4.46 µM (inactive) | 4.27 µM (inactive) | 6.47 µM (inactive) | 12.4 µM (inactive) | 4.58 µM (inactive) |
| Cc1ccc(S(=O)(=O)N2CCSCCSCCSCCSCC2)cc1 | 21.1 µM (inactive) | > 44.2 µM (inactive) | 22.4 µM (inactive) | 64.3 µM (inactive) | > 100 µM (inactive) | 40 µM (inactive) | 48.4 µM (inactive) | > 71 µM (inactive) | > 100 µM (inactive) | 61.4 µM (inactive) | > 72.9 µM (inactive) | > 49.9 µM (inactive) | 40.1 µM (inactive) | 56.4 µM (inactive) | 22.6 µM (inactive) | 43.1 µM (inactive) | 19.1 µM (inactive) | 18.4 µM (inactive) |
| CC1OC(OC2C(O[C@H]3CC[C@@H]4C(=CC[C@@H]5[C@@]4(C)C(=O)C[C@]4(C)[C@@H]([C@H](C)CC[C@@H](O)C(C)(C)O)CC[C@@]54C)C3(C)C)OC(CO)C(O)C2O)C(O)C(O)C1O (stereo partly drawn) | > 100 µM (inactive) | > 100 µM (inactive) | > 100 µM (inactive) | 79.3 µM (inactive) | > 100 µM (inactive) | > 100 µM (inactive) | 75.5 µM (inactive) | 49 µM (inactive) | > 100 µM (inactive) | > 100 µM (inactive) | > 100 µM (inactive) | > 100 µM (inactive) | > 100 µM (inactive) | > 100 µM (inactive) | > 100 µM (inactive) | > 100 µM (inactive) | > 100 µM (inactive) | > 100 µM (inactive) |
| O=C1COc2ccc([N+](=O)[O-])cc2C(=O)C1 | > 10 µM (inactive) | > 10 µM (inactive) | > 10 µM (inactive) | > 10 µM (inactive) | > 10 µM (inactive) | > 10 µM (inactive) | > 10 µM (inactive) | > 10 µM (inactive) | > 10 µM (inactive) | > 10 µM (inactive) | > 10 µM (inactive) | > 10 µM (inactive) | > 10 µM (inactive) | > 10 µM (inactive) | > 10 µM (inactive) | > 10 µM (inactive) | > 10 µM (inactive) | > 10 µM (inactive) |
| Cc1ccc2c(c1)S(=O)(=O)c1ccc3ccccc3c1N2 | > 100 µM (inactive) | > 100 µM (inactive) | > 100 µM (inactive) | > 100 µM (inactive) | > 100 µM (inactive) | > 100 µM (inactive) | > 100 µM (inactive) | > 100 µM (inactive) | > 100 µM (inactive) | > 100 µM (inactive) | > 100 µM (inactive) | > 100 µM (inactive) | > 100 µM (inactive) | > 100 µM (inactive) | > 100 µM (inactive) | > 100 µM (inactive) | > 100 µM (inactive) | > 100 µM (inactive) |
| COc1cc2c(cc1OC)C(CCN)=NCC2 | 5.08 µM (inactive) | 26.9 µM (inactive) | 12.6 µM (inactive) | 2.19 µM (inactive) | 14.3 µM (inactive) | 18.4 µM (inactive) | 22.6 µM (inactive) | 11.2 µM (inactive) | 19 µM (inactive) | 17.2 µM (inactive) | 18.2 µM (inactive) | > 46.1 µM (inactive) | 13.1 µM (inactive) | > 59.2 µM (inactive) | > 100 µM (inactive) | 20 µM (inactive) | > 76.7 µM (inactive) | 16.4 µM (inactive) |
| Nc1ccc([As](=O)(O)O)cc1 [ARSANILIC ACID] | > 100 µM (inactive) | > 100 µM (inactive) | > 100 µM (inactive) | > 100 µM (inactive) | > 100 µM (inactive) | > 100 µM (inactive) | > 100 µM (inactive) | > 100 µM (inactive) | > 100 µM (inactive) | > 100 µM (inactive) | > 100 µM (inactive) | > 100 µM (inactive) | > 100 µM (inactive) | > 100 µM (inactive) | > 100 µM (inactive) | > 100 µM (inactive) | > 100 µM (inactive) | > 100 µM (inactive) |
| CS(=O)(=O)Nc1ccc(NCc2c[nH]c3ccc4ncccc4c23)cc1 | 29.9 µM (inactive) | 20.3 µM (inactive) | 19.6 µM (inactive) | 18.8 µM (inactive) | 18.6 µM (inactive) | 20.3 µM (inactive) | 48.6 µM (inactive) | 18.7 µM (inactive) | 17.5 µM (inactive) | 20.9 µM (inactive) | 23.1 µM (inactive) | 26.2 µM (inactive) | 14.1 µM (inactive) | 30 µM (inactive) | 24.2 µM (inactive) | 14.9 µM (inactive) | 50.8 µM (inactive) | 23.6 µM (inactive) |
| COc1cc(O)c2c(c1)OCC1(Cc3cc(OC)c(OC)cc31)C2=O (stereo not drawn) | > 100 µM (inactive) | > 100 µM (inactive) | 52 µM (inactive) | > 100 µM (inactive) | 90.2 µM (inactive) | 86.1 µM (inactive) | > 100 µM (inactive) | 36.9 µM (inactive) | > 100 µM (inactive) | > 100 µM (inactive) | 31.8 µM (inactive) | 46 µM (inactive) | 72.9 µM (inactive) | > 100 µM (inactive) | 30.5 µM (inactive) | 2.37 µM (inactive) | > 100 µM (inactive) | > 100 µM (inactive) |
| CC1=CC2C3(C)C(C)(C(C)=CP3(=O)c3c(C(C)C)cc(C(C)C)cc3C(C)C)C1P2(=O)c1c(C(C)C)cc(C(C)C)cc1C(C)C (stereo not drawn) | 2.12 µM (inactive) | 2.16 µM (inactive) | 3.01 µM (inactive) | 2.04 µM (inactive) | 1.6 µM (inactive) | 1.75 µM (inactive) | 1.98 µM (inactive) | 1.91 µM (inactive) | 1.78 µM (inactive) | 1.92 µM (inactive) | 2.26 µM (inactive) | 2.23 µM (inactive) | 1.6 µM (inactive) | 1.47 µM (inactive) | 2.4 µM (inactive) | 1.48 µM (inactive) | 2.38 µM (inactive) | 2.45 µM (inactive) |
| COC1/C=C/C(C)C(OC)CC(O)/C=C/C(C)C(C(C)C(OC)C(C)CCC(=O)C(C)C(C/C=C/N(C)C=O)OC)OC(=O)/C=C/C=C(\C)CC(OC)CC2=CC(=O)O[C@@H](C(C)C(OC)C1)[C@H]2O (stereo partly drawn) | 0.0977 µM (active) | 0.056 µM (active) | 0.0332 µM (active) | 0.621 µM (active) | 0.0301 µM (active) | 0.0188 µM (active) | 0.0708 µM (active) | 17.1 µM (inactive) | 0.0753 µM (active) | 0.056 µM (active) | 0.0982 µM (active) | 0.122 µM (active) | 0.26 µM (active) | 0.0395 µM (active) | 0.11 µM (active) | 0.125 µM (active) | 0.151 µM (active) | 0.0706 µM (active) |
| COCOC1C=CCCCC2=CC(C)=C(CC1)O2 (stereo not drawn) | > 100 µM (inactive) | > 100 µM (inactive) | > 100 µM (inactive) | 74.6 µM (inactive) | > 100 µM (inactive) | > 100 µM (inactive) | > 100 µM (inactive) | > 100 µM (inactive) | > 100 µM (inactive) | > 100 µM (inactive) | > 100 µM (inactive) | > 100 µM (inactive) | > 100 µM (inactive) | > 100 µM (inactive) | > 100 µM (inactive) | > 100 µM (inactive) | > 100 µM (inactive) | > 100 µM (inactive) |
| OCC1OC(c2ccccc2)CC1O (stereo not drawn) | > 100 µM (inactive) | > 100 µM (inactive) | > 100 µM (inactive) | > 100 µM (inactive) | > 100 µM (inactive) | > 100 µM (inactive) | > 100 µM (inactive) | > 100 µM (inactive) | > 100 µM (inactive) | > 100 µM (inactive) | > 100 µM (inactive) | > 100 µM (inactive) | – | > 100 µM (inactive) | > 100 µM (inactive) | > 100 µM (inactive) | > 100 µM (inactive) | > 100 µM (inactive) |
| COc1cc(/C=C/C(=O)N[C@@H]2C(=O)N3[C@@H]2SC(C)(C)[C@@H]3C(=O)O)ccc1O | > 100 µM (inactive) | > 100 µM (inactive) | > 100 µM (inactive) | > 100 µM (inactive) | > 100 µM (inactive) | > 100 µM (inactive) | – | > 100 µM (inactive) | > 100 µM (inactive) | > 100 µM (inactive) | > 100 µM (inactive) | > 100 µM (inactive) | > 100 µM (inactive) | > 100 µM (inactive) | > 100 µM (inactive) | > 100 µM (inactive) | > 100 µM (inactive) | > 100 µM (inactive) |
